Common to all, as to format: cell-based
The test system of one assay is Target C CJ mRNA. Kind of assay: Gene panel canonical junction qPCR assay, Target C. Particulars: protocol as above, concentration having 50% response in CJ decrease, read-out: Target C IC50 (decrease in CJ mRNA levels). How it is done:
(§1) Compounds described herein were used to modulate RNA transcript abundance in cells. The expression of a target mRNA was measured by detecting the formation of an exon-exon junction in the canonical transcript (CJ). A compound mediated exon-inclusion event was detected by observing an increase in formation of a new junction with an alternative exon (AJ). Real-time qPCR assays were used to detect these splicing switches and interrogate the potency of various compounds towards different target genes. A high-throughput real time quantitative PCR (RT-qPCR) assay was developed to measure these two isoforms of the mRNA (CJ and AJ) for an exemplary gene, HTT, together with a control housekeeping gene, GAPDH or GUSB or PPIA, used for normalization. Briefly, the A673 or K562 cell line was treated with various compounds described herein (e.g., compounds of Formula (I) or (II)). After treatment, the levels of the HTT mRNA targets were determined from each sample of cell lysate by cDNA synthesis followed by qPCR.
(§2) The A673 cell line was cultured in DMEM with 10% FBS. Cells were diluted with full growth media and plated in a 96-well plate (15,000 cells in 100 ul media per well). The plate was incubated at 37° C. with 5% CO2 for 24 hours to allow cells to adhere. An 11-point 3-fold serial dilution of the compounds was made in DMSO then diluted in media in an intermediate plate. Compounds were transferred from the intermediate plate to the cell plate with the top dose at a final concentration of 10 uM in the well. Final DMSO concentration was kept at or below 0.25%. The cell plate was returned to the incubator at 37° C. with 5% CO2 for an additional 24 hours.
(§3) The K562 cell line was cultured in IMDM with 10% FBS. For K562, cells were diluted with full growth media and plated in either a 96-well plate (50,000 cells in 50 uL media per well) or a 384-well plate (8,000-40,000 cells in 45 uL media per well). An 11-point 3-fold serial dilution of the compounds were made in DMSO then diluted in media in an intermediate plate. Compound was transferred from the intermediate plate to the cell plate with the top dose at a final concentration of 10 uM in the well. Final DMSO concentration was kept at or below 0.25%. Final volume was 100 uL for 96-well plate and 50 uL for 384-well plate. The cell plate was then placed in an incubator at 37° C. with 5% CO2 for 24 hours.
(§4) The cells were then gently washed with 50 uL-100 uL cold PBS before proceeding to addition of lysis buffer. 30 uL-50 uL of room temperature lysis buffer with DNAse I (and optionally RNAsin) was added to each well. Cells were shaken/mixed thoroughly at room temperature for 5-10 minutes for lysis to take place and then 3 uL-5 uL of room temperature stop solution was added and wells were shaken/mixed again. After 2-5 minutes, the cell lysate plate was transferred to ice for RT-qPCR reaction setup. The lysates could also be frozen at −80° C. for later use.
(§5) In some cases, a direct lysis buffer was used. An appropriate volume of 3× lysis buffer (10 mM Tris, 150 mM NaCl, 1.5%-2.5% Igepal and 0.1-1 U/uL RNAsin, pH 7.4) was directly added to either K562 or A673 cells in media and mixed by pipetting 3 times. The plates were then incubated at room temperature with shaking/rocking for 20-50 minutes to allow for lysis to take place. After this time, the cell lysate plate was transferred to ice to set up for the RT-qPCR reactions. The lysates could also be frozen at −80° C. for later use.
(§6) To set up 10 uL RT-qPCR reactions, cell lysates were transferred to 384-well qPCR plates containing the master mix according to the table below. The plates were sealed, gently vortexed, and spun down before the run. The volumes were adjusted accordingly in some instances where the reaction was carried in 20 uL. The table below summarizes the components of the RT-qPCR reactions:
(§7) The RT-qPCR reaction was performed using a QuantStudio (ThermoFisher) under the following fast cycling conditions. […]

In the next assay the test system is HTT AJ mRNA. The experiment in a line: RT-qPCR splicing assay, HTT alternative junction (AJ) mRNA increase. Particulars: A673 or K562 cells, 24 hours compound treatment, top dose 10 uM; concentration having 50% response in AJ increase. How it is done: as §1, §2, §3, §4, §5, §6, §7
In general terms: In qPCR the cycle at which signal appears reflects the starting amount.

Assay [1] has as its system HTT CJ mRNA. The experiment in a line: Gene panel canonical junction qPCR assay, HTT. The note with it: protocol as above, concentration having 50% response in CJ decrease, read-out: HTT IC50 (decrease in CJ mRNA levels). How it is done: as §1, §2, §3, §4, §5, §6, §7
The subject of the next assay is SMN2 CJ mRNA. Kind of assay: Gene panel canonical junction qPCR assay, SMN2. The note with it: protocol as above, concentration having 50% response in CJ decrease, read-out: SMN2 IC50 (decrease in CJ mRNA levels). The protocol: as §1, with “After treatment, the levels of the HTT mRNA targets were determined from each sample of cell lysate by cDNA synthesis followed by qPCR.” left out
as §2, §3, §4, §5, §6
The RT-qPCR reaction was performed using a QuantStudio (ThermoFisher) under the following fast cycling conditions. All samples and standards were analyzed at least in duplicate. […]

The test system of assay [2] is HTT CJ mRNA. Kind of assay: RT-qPCR splicing assay, HTT canonical junction (CJ) mRNA decrease. Particulars: A673 or K562 cells, 24 hours compound treatment, top dose 10 uM; concentration having 50% response in CJ decrease. How it is done:
as §1, §2, §3, §4, §5, §6, §7

The IC50 is the concentration needed to halve the response being measured. What is called AC50 is the concentration at which the activity in the assay is half-maximal. A higher AC50 goes with weaker potency.

For the molecule `Cc1cc(-c2nc3cc(N4CCN(C)CC4)ccc3c(=O)[nH]2)cc2cn(C)nc12` [Compound 214, 2-(2,7-dimethyl-2H-indazol-5-yl)-7-(4-methylpiperazin-1-yl)quinazolin-4(3H)-one], the IC50 in the assay on Target C CJ mRNA, with HTT CJ mRNA [1] and in the assay on SMN2 CJ mRNA was over 10 µM in each case. In addition, the AC50 in the assay on HTT AJ mRNA and in the assay on HTT CJ mRNA [2] was over 10 µM throughout.
With `Cc1cn2nc(-n3cnc4ccc(N5CCN(C)CC5)cc4c3=O)cc(C)c2n1` [Compound 202, 3-(2,8-dimethylimidazo[1,2-b]pyridazin-6-yl)-6-(4-methylpiperazin-1-yl)quinazolin-4(3H)-one], the IC50 in the assay with Target C CJ mRNA, in the assay on HTT CJ mRNA [1] and in the assay with SMN2 CJ mRNA was 1 to 10 µM each time. Moreover, the AC50 in the assay with HTT AJ mRNA and in the assay on HTT CJ mRNA [2] was 1 to 10 µM in each case.
`Cn1cc2cc(-n3cnc4ccc(N5CCNCC5)cc4c3=O)cc(F)c2n1` [Compound 196, 3-(7-fluoro-2-methyl-2H-indazol-5-yl)-6-(piperazin-1-yl)quinazolin-4(3H)-one]: the concentration for half-maximal inhibition (IC50) with Target C CJ mRNA, in the assay with HTT CJ mRNA [1] and in the assay with SMN2 CJ mRNA was over 10 µM throughout. Besides, the AC50 with HTT AJ mRNA and with HTT CJ mRNA [2] was over 10 µM each time.
For `Cc1cc(-c2nc3cc(N4CCNCC4)ccc3c(=O)[nH]2)cc2cn(C)nc12` [Compound 213, 2-(2,7-dimethyl-2H-indazol-5-yl)-7-(piperazin-1-yl)quinazolin-4(3H)-one], the 50% inhibitory concentration (IC50) with Target C CJ mRNA, with HTT CJ mRNA [1] and in the assay with SMN2 CJ mRNA was over 10 µM each time. The AC50 in the assay on HTT AJ mRNA and in the assay on HTT CJ mRNA [2] was over 10 µM throughout.
In the case of `Cn1cc2cc(-n3cnc4ccc(C5=CCNCC5)cc4c3=O)ccc2n1` [Compound 151, 3-(2-methyl-2H-indazol-5-yl)-6-(1,2,3,6-tetrahydropyridin-4-yl)quinazolin-4(3H)-one], the AC50 with HTT AJ mRNA and with HTT CJ mRNA [2] was over 10 µM in each case. In addition, the IC50 in the assay with HTT CJ mRNA [1] and in the assay with SMN2 CJ mRNA was over 10 µM in each case.
For `CN1CCN(c2ccc3ncn(-c4ccc5nn(C)cc5c4)c(=O)c3c2)CC1` [Compound 154, 3-(2-methyl-2H-indazol-5-yl)-6-(4-methylpiperazin-1-yl)quinazolin-4(3H)-one], the AC50 with HTT AJ mRNA and with HTT CJ mRNA [2] was over 10 µM each time. For the same molecule, the IC50 with HTT CJ mRNA [1] and with SMN2 CJ mRNA was over 10 µM in each case.
In the case of `CN1CCC(Nc2ccc3ncn(-c4ccc5nn(C)cc5c4)c(=O)c3c2)CC1` [Compound 171, 3-(2-methyl-2H-indazol-5-yl)-6-((1-methylpiperidin-4-yl)amino)quinazolin-4(3H)-one], the IC50 in the assay with Target C CJ mRNA, in the assay with HTT CJ mRNA [1] and in the assay on SMN2 CJ mRNA was over 10 µM throughout. For the same molecule, the AC50 in the assay on HTT AJ mRNA and with HTT CJ mRNA [2] was over 10 µM throughout.
For the molecule `Cc1cn2cc(-n3cnc4ccc(N(C)C5CCNCC5)cc4c3=O)cc(F)c2n1` [Compound 200, 3-(8-fluoro-2-methylimidazo[1,2-a]pyridin-6-yl)-6-(methyl(piperidin-4-yl)amino)quinazolin-4(3H)-one], the IC50 with Target C CJ mRNA, in the assay on HTT CJ mRNA [1] and in the assay on SMN2 CJ mRNA was over 10 µM in each case. The AC50 with HTT AJ mRNA and in the assay on HTT CJ mRNA [2] was over 10 µM in each case.
Regarding `CN(c1ccc2ncn(-c3cc(F)c4nn(C)cc4c3)c(=O)c2c1)C1CCNCC1` [Compound 198, 3-(7-fluoro-2-methyl-2H-indazol-5-yl)-6-(methyl(piperidin-4-yl)amino)quinazolin-4(3H)-one], the IC50 with Target C CJ mRNA, in the assay on HTT CJ mRNA [1] and in the assay with SMN2 CJ mRNA was over 10 µM in each case. The AC50 with HTT AJ mRNA and with HTT CJ mRNA [2] was over 10 µM each time.
For `Cn1cc2cc(-n3cnc4ccc(N5CCNCC5)cc4c3=O)ccc2n1` [Compound 155, 3-(2-methyl-2H-indazol-5-yl)-6-(piperazin-1-yl)quinazolin-4(3H)-one], the AC50 in the assay with HTT AJ mRNA and with HTT CJ mRNA [2] was over 10 µM in each case. Moreover, the IC50 in the assay on HTT CJ mRNA [1] and in the assay on SMN2 CJ mRNA was over 10 µM each time.

The record behind these values is patent publication US20230167093A1, “COMPOUNDS AND METHODS FOR MODULATING SPLICING” (REMIX THERAPEUTICS INC., priority 2020, published 2023).
